In ChEMBL document CHEMBL3400068, “Novel arylazopyrazole inhibitors of cyclin-dependent kinases” (Bioorg Med Chem, 2015) one finds IC50, Activity and inhibition data, which are given here for eleven compounds.

Structures are written as SMILES. The source made the active and inactive calls. The calls are words filed in the database; no cut-off is given here.

Experiment [1] deals with MCF7. Kind of experiment: Cytotoxicity against human MCF7 cells after 72 hrs by calcein AM staining-based fluorescence assay. It counts as functional, cell-based. The note with it: MCF7, 72 h.
The target of experiment [2] is Cyclin-dependent kinase 2/cyclin E1 (Homo sapiens, UniProt P24941). Kind of experiment: Inhibition of CDK2/cyclin E (unknown origin) expressed in baculovirus infected Sf9 cells.
Experiment [3] deals with RPMI-8226. Kind of experiment: Cytotoxicity against human RPMI8226 cells after 72 hrs by calcein AM staining-based fluorescence assay. It counts as functional, cell-based. Conditions: RPMI-8226, 72 h.
In experiment [4] the test system is K562. As to the kind of experiment: Cytotoxicity against human K562 cells after 72 hrs by calcein AM staining-based fluorescence assay. It counts as functional, cell-based. The note with it: K562, 72 h.
In experiment [5] the test system is MCF7. Kind of experiment: Cell cycle arrest in 24 hrs thymidine-synchronized human MCF7 cells assessed as delay in cell cycle progression at 12.5 to 25 uM after 16 hrs by propidium iodide staining-based flow cytometry. It counts as functional. (In general: A flow cytometer gives signals particle by particle.)
Experiment [6] addresses Cyclin-dependent kinase 1/cyclin B1 (Homo sapiens, UniProt P06493). Kind of experiment: Inhibition of CDK1/cyclin B (unknown origin) expressed in baculovirus infected Sf9 cells.
Experiment [7] relates to K562. As to the kind of experiment: Cell cycle arrest in human K562 cells assessed as accumulation at G2/M phase at 100 uM after 24 hrs by propidium iodide staining-based flow cytometry (reference value: 25.8%). It counts as functional.
Experiment [8] concerns the target Cyclin-dependent kinase 4/cyclin D1 (Homo sapiens, UniProt P11802). Kind of experiment: Inhibition of CDK4/cyclin D1 (unknown origin) expressed in baculovirus infected Sf9 cells.
Experiment [9] has as its system MCF7. Kind of experiment: Cell cycle arrest in 24 hrs serum-deprived human asynchronous MCF7 cells assessed as inhibition of re-entry to G1 phase at 6.25 to 25 uM after 16 hrs by propidium iodide staining-based flow cytometry. It counts as functional.
A short description of experiment [10]: Cell cycle arrest in human RPMI8226 cells assessed as accumulation at G1 phase at 100 uM after 24 hrs by propidium iodide staining-based flow cytometry (reference value: 22.2%). Conditions: RPMI-8226. It counts as functional.
For experiment [11], the system named is RPMI-8226. As to the kind of experiment: Induction of apoptosis in human RPMI8226 cells assessed as increase in caspase 9 activity at 25 to 100 uM after 24 hrs by fluorescence assay. It counts as functional, cell-based.
In experiment [12] the test system is K562. Kind of experiment: Cell cycle arrest in human K562 cells assessed as accumulation at S phase at 100 uM after 24 hrs by propidium iodide staining-based flow cytometry (reference value: 47.9%). It counts as functional.
Experiment [13] in a line: Cell cycle arrest in human RPMI8226 cells assessed as accumulation at S phase at 100 uM after 24 hrs by propidium iodide staining-based flow cytometry (reference value: 53%). It counts as functional. Conditions: RPMI-8226.
For experiment [14], the system named is K562. As to the kind of experiment: Cell cycle arrest in human K562 cells assessed as accumulation at G1 phase at 100 uM after 24 hrs by propidium iodide staining-based flow cytometry (reference value: 26.3%). It counts as functional.
The test system of experiment [15] is RPMI-8226. As to the kind of experiment: Induction of apoptosis in human RPMI8226 cells assessed as caspase 7 activation at 25 to 100 uM after 24 hrs by immunoblot analysis. It counts as functional, cell-based. (In general: In western blotting, separated proteins are transferred to a membrane and probed.)
The target of experiment [16] is Cyclin-dependent kinase 7/ cyclin H (Homo sapiens, UniProt P50613). Kind of experiment: Inhibition of CDK7/cyclin H (unknown origin) expressed in baculovirus infected Sf9 cells.
Experiment [17] relates to MCF7. As to the kind of experiment: Cell cycle arrest in 8 hrs thymidine-synchronized human MCF7 cells assessed as delay in cell cycle progression at 12.5 to 25 uM after 16 hrs by propidium iodide staining-based flow cytometry. It counts as functional.
Experiment [18] relates to MCF7. As to the kind of experiment: Cell cycle arrest in human MCF7 cells assessed as accumulation at S phase at 40 uM after 24 hrs by propidium iodide staining-based flow cytometry (reference value: 28.3%). It counts as functional.
Experiment [19] has as its system RPMI-8226. As to the kind of experiment: Induction of apoptosis in human RPMI8226 cells assessed as caspase 3 activation at 25 to 100 uM after 24 hrs by immunoblot analysis. It counts as functional, cell-based.
Experiment [20] in a line: Cell cycle arrest in human RPMI8226 cells assessed as accumulation at subG1 phase at 100 uM after 24 hrs by propidium iodide staining-based flow cytometry (reference value: 9.8%). It counts as functional. Conditions: RPMI-8226.
Experiment [21] relates to K562. As to the kind of experiment: Cell cycle arrest in human K562 cells assessed as accumulation at subG1 phase at 100 uM after 24 hrs by propidium iodide staining-based flow cytometry (reference value: 2.3%). It counts as functional.
Experiment [22] relates to RPMI-8226. As to the kind of experiment: Induction of apoptosis in human RPMI8226 cells assessed as increase in caspase 3 activity at 25 to 100 uM after 24 hrs by fluorescence assay. It counts as functional, cell-based.
Experiment [23] relates to MCF7. Kind of experiment: Cell cycle arrest in human MCF7 cells assessed as accumulation at G1 phase at 40 uM after 24 hrs by propidium iodide staining-based flow cytometry (reference value: 61.9%). It counts as functional.
Experiment [24] has as its system MCF7. As to the kind of experiment: Cell cycle arrest in human MCF7 cells assessed as accumulation at subG1 phase at 40 uM after 24 hrs by propidium iodide staining-based flow cytometry (reference value: 0.6%). It counts as functional.
For experiment [25], the system named is MCF7. As to the kind of experiment: Cell cycle arrest in human MCF7 cells assessed as accumulation at G2/M phase at 40 uM after 24 hrs by propidium iodide staining-based flow cytometry (reference value: 9.8%). It counts as functional.
The next experiment concerns the target CDK9/cyclin T1 (Homo sapiens, UniProt P50750). As to the kind of experiment: Inhibition of CDK9/cyclin T1 (unknown origin) expressed in baculovirus infected Sf9 cells.
The nature of experiment [26]: Cell cycle arrest in human RPMI8226 cells assessed as accumulation at G2/M phase at 100 uM after 24 hrs by propidium iodide staining-based flow cytometry (reference value: 24.8%). It counts as functional. The note with it: RPMI-8226.
In experiment [27] the test system is RPMI-8226. Kind of experiment: Induction of apoptosis in human RPMI8226 cells assessed as PARP-1 cleavage at 25 to 100 uM after 24 hrs by immunoblot analysis. It counts as functional, cell-based.
Experiment [28] relates to MCF7. As to the kind of experiment: Cell cycle arrest in 8 hrs thymidine-synchronized human MCF7 cells assessed as inhibition of re-entry to cell cycle at 5 to 10 uM after 16 hrs by propidium iodide staining-based flow cytometry. It counts as functional.
The test system of experiment [29] is MCF7. As to the kind of experiment: Cell cycle arrest in 24 hrs thymidine-synchronized human MCF7 cells assessed as inhibition of re-entry to cell cycle at 5 to 10 uM after 16 hrs by propidium iodide staining-based flow cytometry. It counts as functional.

Sequence of Cyclin-dependent kinase 1/cyclin B1 (P06493 whole entry): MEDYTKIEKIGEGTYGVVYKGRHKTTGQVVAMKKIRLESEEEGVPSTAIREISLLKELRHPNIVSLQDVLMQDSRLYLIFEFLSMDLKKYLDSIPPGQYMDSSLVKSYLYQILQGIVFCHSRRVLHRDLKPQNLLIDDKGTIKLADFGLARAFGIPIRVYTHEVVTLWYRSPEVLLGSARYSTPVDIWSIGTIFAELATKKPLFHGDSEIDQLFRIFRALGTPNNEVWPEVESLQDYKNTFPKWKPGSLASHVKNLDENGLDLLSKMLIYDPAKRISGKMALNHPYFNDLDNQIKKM
Sequence of Cyclin-dependent kinase 1/cyclin B1 (P14635 whole entry, further chain): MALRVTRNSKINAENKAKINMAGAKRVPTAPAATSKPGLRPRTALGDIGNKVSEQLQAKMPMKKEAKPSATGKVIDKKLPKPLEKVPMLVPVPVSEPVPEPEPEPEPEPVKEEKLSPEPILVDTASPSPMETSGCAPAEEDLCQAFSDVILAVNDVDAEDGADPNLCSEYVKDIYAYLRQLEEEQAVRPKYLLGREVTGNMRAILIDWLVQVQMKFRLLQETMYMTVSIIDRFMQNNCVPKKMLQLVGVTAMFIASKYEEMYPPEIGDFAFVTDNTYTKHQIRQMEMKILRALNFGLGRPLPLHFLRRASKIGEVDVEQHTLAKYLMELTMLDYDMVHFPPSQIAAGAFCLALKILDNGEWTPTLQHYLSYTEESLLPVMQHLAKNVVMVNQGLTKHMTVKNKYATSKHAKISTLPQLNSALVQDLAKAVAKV
Sequence of CDK9/cyclin T1 (O60563 whole entry): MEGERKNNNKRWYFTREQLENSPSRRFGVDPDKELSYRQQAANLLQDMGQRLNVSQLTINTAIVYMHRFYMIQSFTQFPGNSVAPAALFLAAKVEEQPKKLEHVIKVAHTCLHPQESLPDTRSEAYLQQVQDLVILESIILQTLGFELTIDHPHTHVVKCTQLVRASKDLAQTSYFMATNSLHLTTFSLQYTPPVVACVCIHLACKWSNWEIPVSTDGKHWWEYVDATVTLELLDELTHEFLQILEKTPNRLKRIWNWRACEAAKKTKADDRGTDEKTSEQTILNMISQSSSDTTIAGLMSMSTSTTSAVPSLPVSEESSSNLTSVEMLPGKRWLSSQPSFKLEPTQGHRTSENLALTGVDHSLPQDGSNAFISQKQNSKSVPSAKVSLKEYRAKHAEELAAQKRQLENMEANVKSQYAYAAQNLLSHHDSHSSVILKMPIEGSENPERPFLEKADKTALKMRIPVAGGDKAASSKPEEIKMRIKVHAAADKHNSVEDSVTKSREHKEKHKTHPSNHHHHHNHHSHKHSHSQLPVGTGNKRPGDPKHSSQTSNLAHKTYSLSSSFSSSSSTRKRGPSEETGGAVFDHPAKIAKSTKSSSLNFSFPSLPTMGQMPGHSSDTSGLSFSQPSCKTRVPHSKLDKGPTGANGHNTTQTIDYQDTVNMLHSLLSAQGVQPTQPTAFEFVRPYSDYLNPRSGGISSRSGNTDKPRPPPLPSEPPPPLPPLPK
Sequence of CDK9/cyclin T1 (P50750 whole entry): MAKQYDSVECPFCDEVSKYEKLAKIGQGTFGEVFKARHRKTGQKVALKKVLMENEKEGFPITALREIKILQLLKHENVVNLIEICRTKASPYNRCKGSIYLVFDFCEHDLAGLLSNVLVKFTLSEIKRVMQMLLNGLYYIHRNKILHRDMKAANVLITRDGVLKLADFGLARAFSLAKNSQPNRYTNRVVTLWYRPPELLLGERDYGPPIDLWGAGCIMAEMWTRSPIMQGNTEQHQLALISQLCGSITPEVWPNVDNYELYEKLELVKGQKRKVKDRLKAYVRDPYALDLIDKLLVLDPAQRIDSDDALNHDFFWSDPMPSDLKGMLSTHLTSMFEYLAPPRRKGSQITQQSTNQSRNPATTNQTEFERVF
Sequence of Cyclin-dependent kinase 7/ cyclin H (P51946 whole entry): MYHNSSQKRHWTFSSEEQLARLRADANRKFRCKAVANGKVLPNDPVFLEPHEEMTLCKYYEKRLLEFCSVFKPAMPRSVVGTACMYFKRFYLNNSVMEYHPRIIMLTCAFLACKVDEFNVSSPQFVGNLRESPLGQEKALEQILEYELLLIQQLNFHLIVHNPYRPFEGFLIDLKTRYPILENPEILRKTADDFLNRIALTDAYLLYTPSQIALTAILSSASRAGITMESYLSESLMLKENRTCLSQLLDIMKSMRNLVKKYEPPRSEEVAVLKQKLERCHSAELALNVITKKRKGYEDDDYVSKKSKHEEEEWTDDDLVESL
Sequence of Cyclin-dependent kinase 7/ cyclin H (P50613 whole entry): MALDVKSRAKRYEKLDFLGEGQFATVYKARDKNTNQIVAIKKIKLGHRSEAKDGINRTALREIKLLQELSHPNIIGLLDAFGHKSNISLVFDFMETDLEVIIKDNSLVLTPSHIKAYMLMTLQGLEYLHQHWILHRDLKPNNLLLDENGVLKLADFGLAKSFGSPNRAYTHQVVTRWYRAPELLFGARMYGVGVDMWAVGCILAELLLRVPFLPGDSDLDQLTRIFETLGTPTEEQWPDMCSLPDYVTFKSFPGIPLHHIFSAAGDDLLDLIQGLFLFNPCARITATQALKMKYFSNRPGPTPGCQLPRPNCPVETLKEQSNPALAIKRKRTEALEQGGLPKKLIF
Sequence of Cyclin-dependent kinase 4/cyclin D1 (P11802 whole entry): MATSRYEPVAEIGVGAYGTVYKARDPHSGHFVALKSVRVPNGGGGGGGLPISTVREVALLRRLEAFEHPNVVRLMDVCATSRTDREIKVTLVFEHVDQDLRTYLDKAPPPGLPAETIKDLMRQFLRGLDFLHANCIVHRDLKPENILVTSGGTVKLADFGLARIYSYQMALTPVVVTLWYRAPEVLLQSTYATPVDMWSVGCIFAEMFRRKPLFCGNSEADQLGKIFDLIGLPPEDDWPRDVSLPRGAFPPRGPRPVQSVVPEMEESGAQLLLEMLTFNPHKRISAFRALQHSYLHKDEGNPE
Sequence of Cyclin-dependent kinase 4/cyclin D1 (P24385 whole entry, further chain): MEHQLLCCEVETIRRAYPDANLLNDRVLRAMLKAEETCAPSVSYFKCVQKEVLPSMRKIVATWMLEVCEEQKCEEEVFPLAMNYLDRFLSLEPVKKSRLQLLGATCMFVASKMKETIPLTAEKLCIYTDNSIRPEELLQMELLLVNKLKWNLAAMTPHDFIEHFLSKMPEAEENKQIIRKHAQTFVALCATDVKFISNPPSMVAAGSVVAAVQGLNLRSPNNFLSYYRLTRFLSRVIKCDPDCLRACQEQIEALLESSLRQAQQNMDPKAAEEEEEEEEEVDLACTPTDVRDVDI

Usually IC50 stands for the concentration that inhibits the measured activity by half. For `Nc1n[nH]c(N)c1/N=N/c1cc[n+]([O-])cc1`, the IC50 was > 100 µM in the experiment on MCF7 [1], 17.4 µM in experiment [2], > 100 µM in the experiment on RPMI-8226 [3] and > 100 µM in the experiment with K562 [4].

For the compound `CCOC(=O)n1nc(N)c(/N=N/c2ccc(O)cc2)c1N`, the concentration for half-maximal inhibition (IC50) was > 100 µM in the experiment with MCF7 [1], > 50 µM in experiment [2], > 100 µM in the experiment with RPMI-8226 [3] and > 100 µM with K562 [4].

In the case of `Nc1n[nH]c(N)c1/N=N/c1cccc[n+]1[O-]`, the 50% inhibitory concentration (IC50) was > 100 µM in the experiment on MCF7 [1], > 100 µM in experiment [2], > 100 µM in the experiment with RPMI-8226 [3] and 62.6 µM with K562 [4].

As to `Nc1nn(C(=O)c2ccc([N+](=O)[O-])cc2)c(N)c1/N=N/c1ccc(O)cc1`, the half-maximal inhibitory concentration (IC50) was > 25 µM in the experiment on MCF7 [1], 15 µM in [2], > 100 µM with RPMI-8226 [3] and > 25 µM in the experiment on K562 [4].

For `Cn1nc(N)c(/N=N/c2ccncc2)c1N`, the outcome in the experiment with MCF7 [5], with MCF7 [9], in the experiment with RPMI-8226 [11], in the experiment on RPMI-8226 [15], with MCF7 [17] and with RPMI-8226 [19] was Active. Also, the outcome with RPMI-8226 [22] and in the experiment with RPMI-8226 [27] was Active. In addition, the IC50 in the experiment on MCF7 [1] is 37.7 µM; in [6], 11.3 µM; in [2], 16.8 µM; in [8], 0.42 µM; in the experiment with RPMI-8226 [3], 50 µM; in experiment [16] it was > 50 µM. Moreover, the concentration for half-maximal inhibition (IC50) with K562 [4] was 67.4 µM; at CDK9/cyclin T1, 1.35 µM. Moreover, the Activity with K562 [7] amounted to 35.4%; in experiment [10] it was 31.3%; with K562 [12], 31.4%; in [13], 39.8%; in the experiment with K562 [14], 33.2%; with MCF7 [18], 15.8%. Moreover, the Activity in experiment [20] was 57.7%; with K562 [21], 6.5%; in the experiment with MCF7 [23], 50.6%; in the experiment with MCF7 [24], 1%; in the experiment on MCF7 [25], 33.5%; in experiment [26], 28.9%.

As to `Nc1n[nH]c(N)c1/N=N/c1ccncc1`, the IC50 in the experiment with MCF7 [1] is 4.3 µM; with RPMI-8226 [3], 6.2 µM; in the experiment with K562 [4], 17 µM.

Take `Nc1nn(C(=O)c2cccs2)c(N)c1/N=N/c1ccc(O)cc1`: the concentration for half-maximal inhibition (IC50) in the experiment with MCF7 [1] is > 25 µM; in experiment [2] it was > 25 µM; in the experiment with RPMI-8226 [3] it was > 100 µM; in the experiment with K562 [4], > 25 µM.

For `CCn1cnc2c(Nc3cccc(Cl)c3)nc(N[C@@H]3CCCC[C@@H]3N)nc21`, the inhibition result in the experiment on MCF7 [28] and in the experiment on MCF7 [29] was “Active” each time.

`Nc1n[nH]c(N)c1/N=N/c1ccc(O)cc1`: the values for the IC50 in the experiment on MCF7 [1], in the experiment with RPMI-8226 [3] and in the experiment with K562 [4] were 62 µM, 24.9 µM and 33 µM, respectively.

In the case of `Cn1nc(N)c(/N=N/c2ccc(O)cc2)c1N`, the half-maximal inhibitory concentration (IC50) with MCF7 [1] is > 100 µM; in experiment [2] it was > 50 µM; in the experiment on RPMI-8226 [3], > 100 µM; in the experiment on K562 [4], 98.5 µM.

In the case of `CC(=O)n1nc(N)c(/N=N/c2ccc(O)cc2)c1N`, the IC50 is 44.9 µM in the experiment on MCF7 [1], 42.8 µM in experiment [2], > 100 µM in the experiment on RPMI-8226 [3] and 64.9 µM in the experiment on K562 [4].
